The values that follow come from patent publication US20090118276A1, “THIENOPYRIMIDINES, THIENOPYRIDINES, AND PYRROLOPYRIMIDINES AS B-RAF INHIBITORS” (priority 2007, published 2009).

The assay addresses T1, Flag/GST-tagged recombinant human B-Raf (Homo sapiens, UniProt P15056).
T1 construct: Flag; GST; made in house; host or cells: Sf9 insect cells (B-Raf); E. coli (MEK1-GST)
Kind of assay: B-Raf Kinase to MEK1 ELISA. The assay is classed as biochemical. The procedure: B-Raf Kinase to MEK1 ELISA
B-Raf1 Kinase Assay Procedure: B-Raf-1 is used to phosphorylate GST-MEK1.
B-Raf Assay Stock Solutions:
1. Assay Dilution Buffer (ADB): 20 mM MOPS, pH 7.2, 25 mM β-glycerol phosphate, 5 mM EGTA, 1 mM sodium orthovanadate, 1 mM dithiothreitol, 0.01% Triton X-100.
2. Magnesium/ATP Cocktail: ADB solution (minus Triton X-100) plus 200 μM cold ATP and 40 mM magnesium chloride.
4. Active Kinase: Active B-Raf: used at 0.2 nM per assay point.
8. Anti pMEK Ab (Upstate)
9. Anti-rabbit Ab/Europium conjugate (Wallac)
1. Add 25 μl of ADB containing B-Raf and Mek per assay (i.e. per well of a 96 well plate)
2. Add 25 μl of 0.2 mM ATP and 40 mM magnesium chloride in Magnesium/ATP Cocktail.
3. Incubate for 45 minutes at RT with occasional shaking.
4. Transfer this mixture to an anti-GST Ab coated 96 well plate (Nunc Immunosorb plates coated o/n with a-GST. Plate freshly washed 3× with TBS-T before use.
5. Incubate o/n at 30° C. in cold room.
6. Wash 3× with TBST, add Anti-Phospho MEK1 (1:1000, dilution depends upon lot)
7. Incubate for 60 minutes at RT in a shaking incubator
8. Wash 3× with TBST, add Anti-rabbit Ab/Europium conjugate (Wallac) (1:500, dilution depends upon lot)
9. Incubate for 60 minutes at RT on a platform shaker.
10. Wash plate 3× with TBS-T
11. Add 100 μl of Wallac Delfia Enhancement Solution and shake for 10 minutes.
12. Read plates in Wallac Victor model Plate Reader.
13. Collect data analyze in Excel for single point and IC50 determinations.
The % inhibition was determined for each compound concentration.

pIC50: −log10 of the molar value.

T1 sequence (P15056 whole entry): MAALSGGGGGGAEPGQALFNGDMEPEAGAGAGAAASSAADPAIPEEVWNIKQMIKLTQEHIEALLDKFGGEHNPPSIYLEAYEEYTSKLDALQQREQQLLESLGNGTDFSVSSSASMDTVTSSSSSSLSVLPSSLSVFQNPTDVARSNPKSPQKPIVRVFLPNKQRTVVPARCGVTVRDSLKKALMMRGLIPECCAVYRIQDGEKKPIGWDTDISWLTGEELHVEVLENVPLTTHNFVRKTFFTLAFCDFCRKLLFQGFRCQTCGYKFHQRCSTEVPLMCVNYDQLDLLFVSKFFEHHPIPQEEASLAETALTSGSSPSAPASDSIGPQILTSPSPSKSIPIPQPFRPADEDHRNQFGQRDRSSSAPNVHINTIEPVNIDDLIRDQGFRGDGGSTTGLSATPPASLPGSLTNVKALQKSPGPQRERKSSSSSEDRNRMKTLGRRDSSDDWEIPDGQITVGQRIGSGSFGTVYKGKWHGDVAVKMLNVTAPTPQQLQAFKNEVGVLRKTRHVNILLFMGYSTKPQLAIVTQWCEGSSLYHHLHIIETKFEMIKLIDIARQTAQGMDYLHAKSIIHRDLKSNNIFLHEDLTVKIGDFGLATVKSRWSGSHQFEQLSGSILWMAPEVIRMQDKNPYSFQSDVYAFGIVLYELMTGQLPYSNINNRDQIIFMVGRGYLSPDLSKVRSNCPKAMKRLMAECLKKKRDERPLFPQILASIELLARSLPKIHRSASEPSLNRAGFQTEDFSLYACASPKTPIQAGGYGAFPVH

With `COc1ccc(-n2ccc3c(-c4cccc(NC(=O)c5cccc(C(F)(F)F)c5)c4)ncnc32)cc1` [Compound 103, N-{3-[7-(4-methoxyphenyl)-7H-pyrrolo[2,3-d]pyrimidin-4-yl]phenyl}-3-(trifluoromethyl)benzamide], the negative-log IC50 (pIC50) is 5.24.

On to `CN(C)c1ccc(-n2ccc3c(-c4cccc(NC(=O)c5cccc(C(F)(F)F)c5)c4)ncnc32)cc1` [Compound 107, N-(3-{7-[4-(dimethylamino)phenyl]-7H-pyrrolo[2,3-d]pyrimidin-4-yl}phenyl)-3-(trifluoromethyl)benzamide], for which the negative-log IC50 (pIC50) is 5.18.

As for `O=C(Nc1cccc(-c2ncnc3c2cc(-c2ccncc2)n3CCN2CCCC2)c1)c1cccc(C(F)(F)F)c1` [Compound 108, N-{3-[6-pyridin-4-yl-7-(2-pyrrolidin-1-ylethyl)-7H-pyrrolo[2,3-d]pyrimidin-4-yl]phenyl}-3-(trifluoromethyl)benzamide], the pIC50 was 7.16.

For `CN(C)CCCn1c(-c2ccncc2)cc2c(-c3cccc(NC(=O)c4cccc(C(F)(F)F)c4)c3)ncnc21` [Compound 109, N-(3-{7-[3-(dimethylamino)propyl]-6-pyridin-4-yl-7H-pyrrolo[2,3-d]pyrimidin-4-yl}phenyl)-3-(trifluoromethyl)benzamide], the pIC50 was 7.18.

For the compound `CN(C)Cc1ccc(-n2ccc3c(-c4cccc(NC(=O)c5cccc(C(F)(F)F)c5)c4)ncnc32)cc1` [Compound 111, N-[3-(7-{4-[(dimethylamino)methyl]phenyl}-7H-pyrrolo[2,3-d]pyrimidin-4-yl)phenyl]-3-(trifluoromethyl)benzamide], the pIC50 was 6.36.

As for `O=C(Nc1cccc(-c2ncnc3c2ccn3-c2ccc(CN3CCNCC3)cc2)c1)c1cccc(C(F)(F)F)c1` [Compound 112, N-(3-{7-[4-(piperazin-1-ylmethyl)phenyl]-7H-pyrrolo[2,3-d]pyrimidin-4-yl}phenyl)-3-(trifluoromethyl)benzamide], the pIC50 is 6.72.
